Assay results taken from patent US6080791A, “Method of treating a viral condition by inhibiting membrane fusion” (priority 1992, dated 2000).
Where two headings read alike, the source gives them in different places.

Assays:
[1] = molecular target: hemagglutinin (BHA), fusion peptide exposure (Influenza A virus (A/X-31(H3N2)), UniProt P03438); format: biochemical, C22 / X31 influenza virus (H3N2); conditions: for inhibition in the SPA assay: 1 μM-1 mM
low pH BHA = test: SPA POST control (nonspecific quenching); design: species or system C22 / X31 influenza virus (H3N2)
Experimental: The compounds being screened by SPA are present during scintillation counting. Some of the chemicals, particularly those that are highly colored, quench the detection of radioactivity. A control ("POST") distinguishes whether apparent inhibition arises from inhibition of the conformational change or from nonspecific effects. The test compound is added to a sample of BHA that had previously been acidified and reneutralized. The mixture is then precipitated as usual. Since the BHA treated in this manner is known to be in the low pH conformation, a reduction in measurable cpm compared to controls with ligand omitted proves the compound interferes with the detection system.
^3 H-Leu BHA was diluted to 10,000 cpm (counts per minute) per 200 μl in MSSH buffer (10 mM HEPES, 10 mM MES, 10 mM succinate, 0.10 M NaCl, pH 7.0) containing 0.1% NP40. Protein was incubated with the specified concentration of trial compound for 25 minutes at RT. The same volume of solvent used to dissolve the compound was added to control samples and the final concentration of DMSO in all solutions was 0.67% v/v. A predetermined amount of 1N HAc was added to bring the reactions to the appropriate pH (usually pH 5.0). Following a 5 minute (unless specified otherwise) incubation at RT, reactions were reneutralized with 1N NaOH. For POST controls, compounds were added to the appropriate concentration after reneutralization. 200 μL aliquots of the protein solution were added to scintillation vials containing 100 μl protein A-SPA beads (Amersham), 5% fetal bovine serum (FBS), and antibody. Vials were incubated overnight at RT with constant shaking. Each reaction used 10 μl of fusion peptide antiserum diluted 1:10 with 50% glycerol. Cpm were detected in a Beckman LS3801 scintillation counter without addition of liquid scintillant.
Apparent inhibition due to nonspecific effects was quantitated from the POST controls with the equation:
observed cpm=true cpm*quench factor

[2] = molecular target: BHA (Influenza A virus (A/X-31(H3N2)), UniProt P03438); format: biochemical, C22 / X31 influenza virus (H3N2); conditions: 1 mM
[3] = molecular target: C22 BHA (Influenza A virus (A/X-31(H3N2)), UniProt P03438); format: biochemical
[4] = tested on: hemagglutinin-mediated hemolysis of human red blood cells; test: Hemolysis (HEM) assay; format: cell-based, C22 influenza virus; human red blood cells; conditions: for inhibition at 1000 µM: log conc -3 (M); for inhibition at 100 µM: log conc -4 (M)
C22 virus in MDCK2 cells [5] = tested on: C22 virus in MDCK2 cells
in vitro = conditions: dog, mdck
Experimental: The ELISA-based assay described below (EIA antiviral assay) was used to measure antiviral activity. Cell viability was measured in parallel to distinguish inhibition of viral replication from toxicity.
Infections of MDCK2 cells with virus, compounds, and DMSO were set up identically as for the EIA assay. Following the 15 hour incubation, test compounds were washed away with PBS. 50 μl of MDCK2 growth media and 25 μl 2 mg/ml 3-(4,5-dimethylthiazol-2-yl)-2,5-diphenyl tetrazolium bromide (Sigma) in PBS were added to each well. Plates were returned to 37° C., 5% CO2 for 4 hrs. Crystals were broken up by vigorous mixing following addition of 80 μl isopropanol/0.04 N HCl. After incubation for 30 mins at RT, OD570 was read on an ELISA reader. % Inhibition is the % reduction of OD570 in the wells infected with compound compared to otherwise identical samples with compound omitted.

hemoglobin = test: Hb control (quenching of OD570 of hemoglobin); design: species or system human
HIV-1 fusion protein = HIV-1 fusion protein (Human immunodeficiency virus type 1 group M subtype B, UniProt P04578); test: Inhibition of fusion mediated by the HIV-1 fusion protein; format: cell-based
[6] = molecular target: T1, hemagglutinin (Influenza A virus (A/X-31(H3N2)), UniProt P03438); test: Binding site by crystallography (preliminary)
T1 construct: HA1 and HA2 cleaved from precursor HA0

[7] = tested on: influenza-mediated syncytia formation, CV-1 cells
C22 virus in MDCK2 cells [8] = test: microbe, parasite or virus in culture; conditions: unidentified influenza virus
[9] = Experimental: Synthesis, purification, and characterization of selected compounds are summarized below. Stock solutions were prepared fresh daily. All solutions of the test compounds were prepared in dimethyl-sulfoxide (DMSO).
[10] = tested on: influenza-mediated syncytia formation, CV-1 cells; test: cells; conditions: unidentified influenza virus, CV-1, read-out: IC50 syncytia
[11] = unidentified influenza virus, Erythrocyte, Table 7, read-out: HEM, negative log of IC50 (converted)
[12] = unidentified influenza virus, Erythrocyte, 0.25 h, Table 6, 10^-3 = 1 mM, low pH 15 minutes, read-out: IC50 hemolysis
[13] = unidentified influenza virus, Erythrocyte, read-out: hemolysis % ↓ OD
[14] = MDCK2, 15 h, read-out: infectivity % inhibition
[15] = MDCK2, read-out: IC50 infectivity
[16] = MDCK2, read-out: INF, negative log of IC50 (converted)

Row | Compound | inhibition of hemolytic activity [4] | IC50 [4, 11] [µM] | infectivity in Table 6 (C22 virus in MDCK2 cells [5]) | INF, words (Table 7) (C22 virus in MDCK2 cells [5]) | cytotoxicity at 15 h, 1 µM (in vitro) [%] | cytotoxicity at 15 h, 10 µM (in vitro) [%] | cytotoxicity at 15 h, 100 µM (in vitro) [%] | IC50 [4, 12] [µM] | inhibition at 1000 µM [4, 13] [%] | inhibition at 100 µM [4, 13] [%] | Hb control % ↓ OD (hemoglobin; log conc -3 (M)) [%] | Hb control % ↓ OD (hemoglobin; log conc -4 (M)) [%] | inhibition at 1 µM (C22 virus in MDCK2 cells [8]; [14]) [%] | inhibition at 10 µM (C22 virus in MDCK2 cells [8]; [14]) [%] | inhibition at 100 µM (C22 virus in MDCK2 cells [8]; [14]) [%] | IC50 (C22 virus in MDCK2 cells [8]; [16]) [µM] | solubility at 1 mM [9] | also measured
1 | O=C1C=CC(=O)C2C3C=CC(C3)C12 (stereo not shown) [Compound 83K, 4A,5,8,8A-tetrahydro-5,8-methano-1,4-naphthoguinone] | apparently inhibited hemolytic activity | 100 to 1000 | toxic | toxic | 3.4 ± 10.5 | 7.3 ± 8.9 | 46.4 ± 15.1 | – | – | – | – | – | – | – | – | – | – | % inhibition, sample (Table 1) [1]: 49.1 ± 15.0%; inhibition at 10^-5 M ([1]; 10^-5 M): negligible inhibition; Inhibition of the POST controls (low pH BHA; 10 mM): 26.4%; Inhibition of the POST controls (low pH BHA; all other concentrations (below 10 mM)): ≤ 4%; % inhibition, POST control (low pH BHA; log conc -3 (M)): -5.3 ± 2.1%; % inhibition, POST control (low pH BHA; log conc -4 (M)): 3.0%; % inhibition, POST control (low pH BHA; log conc -5 (M)): 0.8 ± 12.7%; % inhibition, POST control (low pH BHA; log conc -6 (M)): -6.2%; reversibility of inhibition by dilution [2]: reversible by dilution; inhibition at low pH ([3]; 10 seconds at pH 5.0): 73%; inhibition at low pH ([3]; 10 minutes at pH 5.0): 43%; fraction of its maximal inhibition of fusion peptide exposure maintained ([3]; after 10 minutes at pH 5.0, C22 BHA): 60%; cytotoxicity at 15 h, 1000 µM (in vitro): 92.9 ± 7.4%
2 | O=C1C=CC(=O)c2ccccc21 [Compound 90, 1,4-naphthoquinone] | – | 1000 | – | – | -6.7 ± 7.3 | 33 ± 9.9 | 96.8 ± 3.8 | 1000 | 90.3 | 33.1 | 68.1 | 57.1 | -3.3 ± 2.4 | 81.7 ± 2.2 | 96.9 | 10 | – | % inhibition, POST control (low pH BHA; log conc -3 (M)): 68.2%; % inhibition, POST control (low pH BHA; log conc -4 (M)): 30.8%; % inhibition, POST control (low pH BHA; log conc -5 (M)): 4.6%; inhibition at 10 µM ([4]; unidentified influenza virus, Erythrocyte, log conc -5 (M), read-out: hemolysis % ↓ OD): 4.7%; Hb control % ↓ OD (hemoglobin; log conc -5 (M)): 24.9%; IC50 (HIV-1 fusion protein): 2 µM; binding site (preliminary crystallographic results) [6]: binding to hemagglutinin at a site in the hinge region of the trimer; syncytia, Table 6 [7]: morph; IC50 (C22 virus in MDCK2 cells [8]; [15]): 10 µM
3 | Oc1ccc(Cl)c2ccccc12 [Compound 101, 4-chloro-1-naphthol] | – | – | – | – | – | – | 97.4 | – | 112 | – | 93.0 | – | – | – | – | – | only partially soluble at 1 mM | inhibition in the SPA assay [1]: showed no inhibition; activity note in Table 7 [1]: inactive
4 | O=C1c2ccccc2C(=O)c2c(O)ccc(O)c21 [Compound 102, quinizarin] | – | – | – | – | – | – | – | – | – | – | – | – | – | – | – | – | only partially soluble at 1 mM | inhibition in the SPA assay [1]: showed no inhibition; activity note in Table 7 [1]: inactive
5 | Oc1ccc(O)c(-c2ccccc2)c1 [Compound 105, phenylhydroquinone] | – | – | toxic | toxic | – | – | 100 | – | – | – | – | – | – | – | – | – | only partially soluble at 1 mM | –
6 | COc1ccc(O)c2ccccc12 [Compound 107, 4-methoxy-1-naphthol] | – | – | toxic | toxic | – | – | 96.9 | – | 104 | – | 92.5 | – | – | – | – | – | only partially soluble at 1 mM | hemolysis column of Table 6, words ([4]; Table 6): quench; HEM, words (Table 7) ([4]; Table 7): quench; IC50 (HIV-1 fusion protein): 50 µM
7 | Oc1ccc(O)c2ccccc12 [Compound 110, 1,4-dihydroxynaphthalene] | – | – | – | – | 5 ± 12.5 | 19.2 ± 15.6 | 98.3 ± 1.2 | – | – | – | – | – | -9.8 ± 0.6 | 61.1 ± 50.8 | 91.9 ± 11.5 | – | only partially soluble at 1 mM | cytotoxicity at 15 h, 1000 µM (in vitro): 96.9 ± 0.4%; inhibition at 1000 µM (C22 virus in MDCK2 cells [8]; [14]): 102%
8 | O=c1[nH]c(=O)n(O)c2nc[nH]c12 [Compound 113, xanthine 3-N-oxide] | – | – | – | – | – | – | – | – | – | – | – | – | – | – | – | – | – | solubility in DMSO ([9]; DMSO): insoluble in DMSO
9 | Cc1cc(O)c(C)cc1O [Compound 116, 2,5-dimethylhydroquinone] | did not | > 1000 | – | – | 3.6 ± 4.5 | -9.4 ± 5 | -23.6 ± 5 | > 1000 | 17.3 | 7.7 | 44.0 | 31.6 | 18.8 ± 1.7 | 42.8 ± 4.7 | 78.1 ± 10 | 10 to 100 | – | SPA activity [1]: inactive in the SPA; syncytia, Table 6 [7]: morph; infectivity inhibition (C22 virus in MDCK2 cells [5]): inhibited infectivity
10 | O=C1C=C(O)C(=O)c2ccccc21 [Compound 120, 2-hydroxy-1,4-naphthoquinone] | did not | > 100 | – | – | 0.5 ± 0.3 | -6 ± 5 | -7 ± 4.4 | > 100 | – | 6.2 | – | 4.4 | 7.1 ± 6.7 | 4.7 ± 0.9 | -2.3 ± 3.1 | > 1000 | – | inhibition of syncytia formation ([7]; 10 μM): Significant inhibition was not observed; IC50 [10]: > 10 µM; IC50 (C22 virus in MDCK2 cells [8]; [15]): > 1000 µM
